Key:
Test in all cases: KiNativ kinome profiling in PANC-1 lysate
Type in all cases: binding
PKD2 = target: T1, PKD2 (Homo sapiens, UniProt Q9BZL6); details: Lys1
T1 construct: endogenous in cells; host or cells: PANC-1 cell lysate
Excerpt: (§1) To assess target engagement and selectivity, we opted to conduct a kinome screen (KiNativ) in PANC-1 cell lysates. This chemical proteomics (chemoproteomics) methodology allows for the evaluation of small-molecule binding to protein kinases in native systems such as cell lysates. KiNativ utilizes a soluble chemical probe comprising ATP linked to biotin through an acyl-phosphate bond. The probe covalently modifies conserved lysine residues found in the ATP binding site of essentially all protein kinases (Figure 2A). To profile a kinase inhibitor, cell lysates are treated with a vehicle control or inhibitor prior to addition of the desthiobiotin ATP probe. The ATP probe occupies the ATP binding site in the kinase, which enables the conserved lysines to be biotinylated. […] The cell lysates are digested with a protease (trypsin), biotinylated peptides are affinity-enriched on streptavidin beads, and the labeled peptides are analyzed by liquid chromatography–tandem MS (Figure 2B). If an inhibitor binds to a kinase, it competes with the ATP, thus resulting in a loss of that kinase-associated peptide signal, allowing for the quantitative measurement of inhibitor binding. Unlike recombinant enzyme assays, KiNativ IC50 values are a direct measure of active site binding instead of enzymatic activity.
(§2) Kinome profiling quantified the activity of 51-106 against >300 kinases in the PANC-1 cells. The results summarized in Figure 2C are the average of duplicate control and duplicate treated samples with 5 μM of 51-106 or DMSO.
(§3) KiNativ assay with 51-106.
(§4) ATP Loop: ATP binding loop
(§5) Activation Loop: Activation loop
(§6) ATP: ATP site in non-canonical kinase (e.g. lipid kinase)
(§7) Protein Kinase Domain: Other lysine within kinase domain, possibly not in ATP binding site
(§8) Other: Labeling of residue outside of the protein kinase domain, possibly not in ATP binding site
(§9) No change. NB = No Binding (≤ 0)
(§10) >100% increase in MS signal (>2 fold increase)
(§11) Data points inhibited […] & not considered significant are left uncolored
(§12) Note: This KiNativ dataset is the result of an analysis of duplicate treated samples and control samples.
(§13) The % changes in MS signals being reported are statistically significant (Student T -test score < 0.04)

MAP2K6 = target: T2, MAP2K6 (Homo sapiens, UniProt P52564); details: for % Inhibition: 5 µM
T2 construct: endogenous in cells; host or cells: PANC-1 cell lysate
T2 sequence (P52564 1-334): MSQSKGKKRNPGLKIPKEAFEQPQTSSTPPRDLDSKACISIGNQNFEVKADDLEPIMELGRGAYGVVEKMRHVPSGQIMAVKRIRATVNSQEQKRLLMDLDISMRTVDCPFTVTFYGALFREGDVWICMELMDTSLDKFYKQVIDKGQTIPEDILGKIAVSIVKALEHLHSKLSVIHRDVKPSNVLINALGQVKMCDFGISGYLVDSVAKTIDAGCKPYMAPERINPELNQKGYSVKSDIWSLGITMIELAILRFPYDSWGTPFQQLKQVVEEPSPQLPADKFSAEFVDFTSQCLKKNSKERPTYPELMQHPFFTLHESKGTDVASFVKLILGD
Excerpt: as §1, §2, §3, §4, §5, §6, §7, §8, §9, §10, §11, §12, §13

EphB4 = target: T3, EphB4 (Homo sapiens, UniProt P54760); details: ATP Loop
T3 construct: endogenous in cells; host or cells: PANC-1 lysate
T3 sequence (P54760 16-987): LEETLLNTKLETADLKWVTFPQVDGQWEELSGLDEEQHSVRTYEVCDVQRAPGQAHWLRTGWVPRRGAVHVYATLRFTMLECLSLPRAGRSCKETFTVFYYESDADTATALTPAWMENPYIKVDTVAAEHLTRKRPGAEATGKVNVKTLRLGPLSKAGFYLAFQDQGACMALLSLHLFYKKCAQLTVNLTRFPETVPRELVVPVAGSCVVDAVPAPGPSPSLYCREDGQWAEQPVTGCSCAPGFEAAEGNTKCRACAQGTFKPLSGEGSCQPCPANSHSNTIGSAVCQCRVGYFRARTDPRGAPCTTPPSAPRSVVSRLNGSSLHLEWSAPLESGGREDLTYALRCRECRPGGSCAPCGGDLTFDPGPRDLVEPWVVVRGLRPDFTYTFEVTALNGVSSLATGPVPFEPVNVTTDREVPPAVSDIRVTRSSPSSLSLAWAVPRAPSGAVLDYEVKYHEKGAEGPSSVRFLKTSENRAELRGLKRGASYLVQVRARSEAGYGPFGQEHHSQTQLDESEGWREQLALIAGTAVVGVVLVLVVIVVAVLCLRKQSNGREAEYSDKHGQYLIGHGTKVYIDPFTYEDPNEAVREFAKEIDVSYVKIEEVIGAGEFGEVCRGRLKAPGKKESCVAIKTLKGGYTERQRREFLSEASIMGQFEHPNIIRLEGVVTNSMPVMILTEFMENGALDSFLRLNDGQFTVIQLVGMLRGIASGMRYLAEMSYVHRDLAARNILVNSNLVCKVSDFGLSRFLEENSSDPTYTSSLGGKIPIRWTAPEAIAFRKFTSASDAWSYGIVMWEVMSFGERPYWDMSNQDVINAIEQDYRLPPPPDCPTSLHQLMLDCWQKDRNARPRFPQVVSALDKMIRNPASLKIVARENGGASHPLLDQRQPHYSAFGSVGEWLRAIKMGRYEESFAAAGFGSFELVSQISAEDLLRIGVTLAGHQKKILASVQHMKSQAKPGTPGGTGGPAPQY
Excerpt: as §1, §2, §3, §4, §5, §6, §7, §8, §9, §10, §11, §12, §13

IKKe, TBK1 = details: 5 µM; Lys2; DIKPGNIMR
Excerpt: as §1, §2, §3, §4, §5, §6, §7, §8, §9, §10, §11, §12, §13

MLK3 = target: T4, MLK3 (Homo sapiens, UniProt Q16584); details: Lys2
T4 construct: endogenous in cells; host or cells: PANC-1
Excerpt: as §1, §2, §3, §4, §5, §6, §7, §8, §9, §10, §11, §12, §13

NEK1 = target: T5, NEK1 (Homo sapiens, UniProt Q96PY6)
T5 construct: endogenous in cells; host or cells: PANC-1 cell lysate
T5 sequence (Q96PY6 whole entry): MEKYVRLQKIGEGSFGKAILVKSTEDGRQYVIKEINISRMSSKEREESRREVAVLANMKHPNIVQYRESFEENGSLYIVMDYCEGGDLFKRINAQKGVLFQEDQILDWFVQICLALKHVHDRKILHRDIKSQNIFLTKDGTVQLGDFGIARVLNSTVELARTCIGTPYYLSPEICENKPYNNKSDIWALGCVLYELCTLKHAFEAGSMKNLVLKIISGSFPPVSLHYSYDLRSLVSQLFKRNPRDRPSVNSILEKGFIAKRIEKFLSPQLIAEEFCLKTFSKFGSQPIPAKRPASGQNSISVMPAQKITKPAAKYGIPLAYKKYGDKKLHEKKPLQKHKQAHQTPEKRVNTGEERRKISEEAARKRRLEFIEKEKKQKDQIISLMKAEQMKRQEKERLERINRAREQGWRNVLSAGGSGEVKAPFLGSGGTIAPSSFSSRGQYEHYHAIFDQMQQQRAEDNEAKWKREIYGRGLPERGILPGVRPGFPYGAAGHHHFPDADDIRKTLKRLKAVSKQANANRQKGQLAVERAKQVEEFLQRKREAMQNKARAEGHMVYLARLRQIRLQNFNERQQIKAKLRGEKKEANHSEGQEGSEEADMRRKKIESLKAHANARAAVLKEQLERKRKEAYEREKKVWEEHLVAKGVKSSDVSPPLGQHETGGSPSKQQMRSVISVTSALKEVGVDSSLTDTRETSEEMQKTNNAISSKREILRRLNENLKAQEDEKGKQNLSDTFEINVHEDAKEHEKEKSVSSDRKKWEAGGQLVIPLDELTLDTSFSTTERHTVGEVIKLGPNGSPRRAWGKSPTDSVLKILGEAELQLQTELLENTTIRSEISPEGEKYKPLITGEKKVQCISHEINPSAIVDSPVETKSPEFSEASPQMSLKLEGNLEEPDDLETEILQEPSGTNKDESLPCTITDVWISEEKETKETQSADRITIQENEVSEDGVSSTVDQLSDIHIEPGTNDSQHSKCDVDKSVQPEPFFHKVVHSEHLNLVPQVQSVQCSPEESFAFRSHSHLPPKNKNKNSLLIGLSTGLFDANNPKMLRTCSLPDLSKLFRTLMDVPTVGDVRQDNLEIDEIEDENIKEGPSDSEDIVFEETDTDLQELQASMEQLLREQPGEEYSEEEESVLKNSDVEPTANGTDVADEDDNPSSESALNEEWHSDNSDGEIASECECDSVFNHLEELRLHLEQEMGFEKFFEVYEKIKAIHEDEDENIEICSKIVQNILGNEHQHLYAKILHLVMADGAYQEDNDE
Excerpt: as §1, §2, §3, §4, §5, §6, §7, §8, §9, §10, §11, §12, §13

NDR2 = target: T6, NDR2 (Homo sapiens, UniProt Q9Y2H1)
T6 construct: endogenous in cells; host or cells: PANC-1 cell lysate
T6 sequence (Q9Y2H1 whole entry): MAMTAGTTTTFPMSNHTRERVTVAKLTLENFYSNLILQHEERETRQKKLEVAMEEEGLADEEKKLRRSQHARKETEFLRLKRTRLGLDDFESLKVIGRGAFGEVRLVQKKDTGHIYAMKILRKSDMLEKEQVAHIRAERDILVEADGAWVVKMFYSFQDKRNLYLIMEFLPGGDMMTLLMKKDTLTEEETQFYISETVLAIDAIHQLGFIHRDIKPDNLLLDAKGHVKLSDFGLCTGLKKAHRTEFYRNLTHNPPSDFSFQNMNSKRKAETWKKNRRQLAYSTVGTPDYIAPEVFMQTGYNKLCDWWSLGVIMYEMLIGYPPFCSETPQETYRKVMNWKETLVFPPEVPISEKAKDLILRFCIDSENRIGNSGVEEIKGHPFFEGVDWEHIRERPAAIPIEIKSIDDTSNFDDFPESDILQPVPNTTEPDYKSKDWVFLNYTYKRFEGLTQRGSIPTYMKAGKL
Excerpt: as §1, §2, §3, §4, §5, §6, §7, §8, §9, §10, §11, §12, §13

RAF1 = target: T7, RAF1 (Homo sapiens, UniProt P04049); details: Lys2
T7 construct: endogenous in cells; host or cells: PANC-1 cell lysate
Excerpt: as §1, §2, §3, §4, §5, §6, §7, §8, §9, §10, §11, §12, §13

CK1g1 = target: T8, CK1g1 (Homo sapiens, UniProt Q9HCP0); details: Lys2
T8 construct: endogenous in cells; host or cells: PANC-1 cell lysate
Excerpt: as §1, §2, §3, §4, §5, §6, §7, §8, §9, §10, §11, §12, §13

RSK2 domain1 = target: T9, RSK2 domain1 (Homo sapiens, UniProt P51812)
T9 construct: endogenous in cells; host or cells: PANC-1 cell lysate
T9 sequence (P51812 whole entry, the tested form may be a part): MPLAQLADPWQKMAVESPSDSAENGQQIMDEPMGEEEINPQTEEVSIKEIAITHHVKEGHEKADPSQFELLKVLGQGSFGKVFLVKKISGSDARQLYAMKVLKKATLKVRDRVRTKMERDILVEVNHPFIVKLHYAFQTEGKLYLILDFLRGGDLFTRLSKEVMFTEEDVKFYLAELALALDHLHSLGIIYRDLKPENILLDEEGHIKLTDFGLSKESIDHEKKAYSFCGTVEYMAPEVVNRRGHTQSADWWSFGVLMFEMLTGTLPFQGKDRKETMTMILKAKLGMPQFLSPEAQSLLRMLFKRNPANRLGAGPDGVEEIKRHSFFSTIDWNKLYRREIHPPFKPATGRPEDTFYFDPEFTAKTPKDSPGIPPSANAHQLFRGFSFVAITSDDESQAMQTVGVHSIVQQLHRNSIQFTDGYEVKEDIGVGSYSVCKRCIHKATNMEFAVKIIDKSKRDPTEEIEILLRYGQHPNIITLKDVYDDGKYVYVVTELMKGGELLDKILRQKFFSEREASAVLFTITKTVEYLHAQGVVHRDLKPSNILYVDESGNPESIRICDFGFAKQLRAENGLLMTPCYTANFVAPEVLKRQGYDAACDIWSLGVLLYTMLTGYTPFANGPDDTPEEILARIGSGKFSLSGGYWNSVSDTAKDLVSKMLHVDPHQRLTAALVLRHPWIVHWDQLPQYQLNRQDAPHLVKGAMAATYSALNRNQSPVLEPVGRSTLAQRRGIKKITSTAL
Excerpt: as §1, §2, §3, §4, §5, §6, §7, §8, §9, §10, §11, §12, §13

MSK1 domain1 = target: T10, MSK1 domain1 (Homo sapiens, UniProt O75582); details: Lys2
T10 construct: endogenous in cells; host or cells: PANC-1
Excerpt: as §1, §2, §3, §4, §5, §6, §7, §8, §9, §10, §11, §12, §13

MPSK1 = target: T11, MPSK1 (Homo sapiens, UniProt O75716); details: Lys2
T11 construct: endogenous in cells; host or cells: PANC-1
T11 sequence (O75716 whole entry): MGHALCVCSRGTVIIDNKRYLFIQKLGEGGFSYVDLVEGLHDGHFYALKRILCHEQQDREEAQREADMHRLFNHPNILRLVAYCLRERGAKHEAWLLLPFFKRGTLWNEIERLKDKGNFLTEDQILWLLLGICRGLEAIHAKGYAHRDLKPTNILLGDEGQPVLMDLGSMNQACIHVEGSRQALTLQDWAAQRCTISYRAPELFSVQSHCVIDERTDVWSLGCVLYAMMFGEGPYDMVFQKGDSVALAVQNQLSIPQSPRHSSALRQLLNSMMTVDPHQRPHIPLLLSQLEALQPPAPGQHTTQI
Excerpt: as §1, §2, §3, §4, §5, §6, §7, §8, §9, §10, §11, §12, §13

CDK11 = target: T12, CDK11 (Homo sapiens, UniProt Q9BWU1); details: Lys1
T12 construct: endogenous in cells; host or cells: PANC-1 cell lysate
Excerpt: as §1, §2, §3, §4, §5, §6, §7, §8, §9, §10, §11, §12, §13

p38a = target: T13, p38a (Homo sapiens, UniProt Q16539)
T13 construct: endogenous in cells; host or cells: PANC-1 cell lysate
T13 sequence (Q16539 whole entry): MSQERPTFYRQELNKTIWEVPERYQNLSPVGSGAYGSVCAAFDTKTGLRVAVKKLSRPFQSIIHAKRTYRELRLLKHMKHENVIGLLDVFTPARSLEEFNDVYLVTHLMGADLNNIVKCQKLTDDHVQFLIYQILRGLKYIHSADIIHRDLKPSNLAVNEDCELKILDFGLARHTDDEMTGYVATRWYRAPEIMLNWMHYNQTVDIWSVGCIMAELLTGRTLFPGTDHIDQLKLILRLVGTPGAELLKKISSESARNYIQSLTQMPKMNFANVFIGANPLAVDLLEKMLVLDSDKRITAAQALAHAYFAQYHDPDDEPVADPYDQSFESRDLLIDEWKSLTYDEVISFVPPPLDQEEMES
Excerpt: as §1, §2, §3, §4, §5, §6, §7, §8, §9, §10, §11, §12, §13

MAP3K5 = target: T14, MAP3K5 (Homo sapiens, UniProt Q99683); details: Lys2
T14 construct: endogenous in cells; host or cells: PANC-1 cell lysate
Excerpt: as §1, §2, §3, §4, §5, §6, §7, §8, §9, §10, §11, §12, §13

AMPKa1, AMPKa2 = details: 5 µM
Excerpt: as §1, §2, §3, §4, §5, §6, §7, §8, §9, §10, §11, §12, §13

p38b = target: T15, p38b (Homo sapiens, UniProt Q15759); details: Other
T15 construct: endogenous in cells; host or cells: PANC-1 cell lysate
Excerpt: as §1, §2, §3, §4, §5, §6, §7, §8, §9, §10, §11, §12, §13

SMG1 = target: T16, SMG1 (Homo sapiens, UniProt Q96Q15); details: ATP
T16 construct: endogenous in cells; host or cells: PANC-1 cell lysate
Excerpt: as §1, §2, §3, §4, §5, §6, §7, §8, §9, §10, §11, §12, §13

SBK = target: T17, SBK (Homo sapiens, UniProt Q52WX2); details: Lys2
T17 construct: endogenous in cells; host or cells: PANC-1 cell lysate
T17 sequence (Q52WX2 whole entry): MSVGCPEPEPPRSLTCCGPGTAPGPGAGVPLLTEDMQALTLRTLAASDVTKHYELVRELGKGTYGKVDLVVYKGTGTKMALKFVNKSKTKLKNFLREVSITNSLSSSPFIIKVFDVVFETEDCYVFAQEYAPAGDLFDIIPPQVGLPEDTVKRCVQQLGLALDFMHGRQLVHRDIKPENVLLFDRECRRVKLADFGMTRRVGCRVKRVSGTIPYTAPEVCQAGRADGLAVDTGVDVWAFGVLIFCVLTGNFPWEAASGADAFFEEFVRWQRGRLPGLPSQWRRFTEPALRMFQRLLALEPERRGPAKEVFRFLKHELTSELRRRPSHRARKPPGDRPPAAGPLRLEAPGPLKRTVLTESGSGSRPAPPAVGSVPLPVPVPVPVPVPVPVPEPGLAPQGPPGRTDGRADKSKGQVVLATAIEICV
Excerpt: as §1, §2, §3, §4, §5, §6, §7, §8, §9, §10, §11, §12, §13

CLK3 = target: T18, CLK3 (Homo sapiens, UniProt P49761)
T18 construct: endogenous in cells; host or cells: PANC-1 cell lysate
T18 sequence (P49761 whole entry): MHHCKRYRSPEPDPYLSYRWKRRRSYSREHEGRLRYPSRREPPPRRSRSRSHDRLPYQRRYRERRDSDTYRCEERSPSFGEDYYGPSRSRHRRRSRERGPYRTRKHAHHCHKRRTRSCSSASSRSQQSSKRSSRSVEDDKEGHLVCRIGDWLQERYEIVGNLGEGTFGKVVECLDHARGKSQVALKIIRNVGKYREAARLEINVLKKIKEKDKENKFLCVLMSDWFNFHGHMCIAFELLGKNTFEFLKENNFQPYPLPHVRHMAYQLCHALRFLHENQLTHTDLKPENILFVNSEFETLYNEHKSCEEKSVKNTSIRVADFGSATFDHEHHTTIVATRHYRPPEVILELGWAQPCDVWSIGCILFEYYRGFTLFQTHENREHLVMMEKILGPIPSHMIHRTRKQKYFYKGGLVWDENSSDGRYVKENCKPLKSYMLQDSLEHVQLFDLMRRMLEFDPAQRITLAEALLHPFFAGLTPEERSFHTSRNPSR
Excerpt: as §1, §2, §3, §4, §5, §6, §7, §8, §9, §10, §11, §12, §13

CK1d, CK1e = details: 5 µM; Lys2; DVKPDNFLMGLGKK
Excerpt: as §1, §2, §3, §4, §5, §6, §7, §8, §9, §10, §11, §12, §13

MST3 = target: T19, MST3 (Homo sapiens, UniProt Q9Y6E0); details: Lys2
T19 construct: endogenous in cells; host or cells: PANC-1
Excerpt: as §1, §2, §3, §4, §5, §6, §7, §8, §9, §10, §11, §12, §13

## Cn1cc(-c2cnc3ccc(NC(=O)Nc4ccc(F)c(C(F)(F)F)c4)cc3n2)cn1 [51-106, 1-(4-Fluoro-3-(trifluoromethyl)phenyl)-3-(3-(1-methyl-1H-pyrazol-4-yl)quinoxalin-6-yl)urea]
PKD2
  inhibition at 5 µM: 10.6%
MAP2K6; Lys1, HVPSGQIMAVKR
  % Inhibition: NB (NB = No Binding (≤ 0))
MAP2K6; Lys2, DVKPSNVLINALGQVK
  % Inhibition: NB (NB = No Binding (≤ 0))
MAP2K6; ATP Loop, […]
  inhibition at 5 µM: ≤ 0%
EphB4
  inhibition at 5 µM: 1.6%
IKKe, TBK1
  % Inhibition: 10.6%
MLK3
  inhibition at 5 µM: 1.3%
NEK1; 5 µM, Lys1, QYVIKEINISR
  % Inhibition: NB (NB = No Binding (≤ 0))
NEK1; Lys2, […]
  inhibition at 5 µM: ≤ 0%
NDR2; Lys1, DTGHIYAMKILR
  inhibition at 5 µM: ≤ 0%
NDR2; Lys2, DIKPDNLLLDAK
  inhibition at 5 µM: 7.6%
RAF1
  inhibition at 5 µM: ≤ 0%
CK1g1
  inhibition at 5 µM: ≤ 0%
RSK2 domain1; ATP Loop, LTDFGLSKESIDHEKK
  inhibition at 5 µM: ≤ 0%
RSK2 domain1; Lys1, QLYAMKVLK
  inhibition at 5 µM: 23.6%
MSK1 domain1
  inhibition at 5 µM: ≤ 0%
MPSK1
  inhibition at 5 µM: ≤ 0%
CDK11
  inhibition at 5 µM: 4%
p38a; Lys2, DLKPSNLAVNEDCELK
  inhibition at 5 µM: ≤ 0%
p38a; Other, QELNKTIWEVPER
  inhibition at 5 µM: 7.5%
MAP3K5
  inhibition at 5 µM: 11.7%
AMPKa1, AMPKa2; Lys1, VAVKILNR
  % Inhibition: 7.5%
AMPKa1, AMPKa2; Lys2, DLKPENVLLDAHMNAK
  % Inhibition: 8.7%
p38b
  inhibition at 5 µM: ≤ 0%
SMG1; 5 µM, DTVTIHSVGGTITILPTKTKPK
  % Inhibition: NB (NB = No Binding (≤ 0))
SMG1; […]
  inhibition at 5 µM: ≤ 0%
SBK
  inhibition at 5 µM: ≤ 0%
CLK3; ATP Loop, YEIVGNLGEGTFGKVVECLDHAR
  inhibition at 5 µM: ≤ 0%
CLK3; Lys2, FLHENQLTHTDLKPENILFVNSEFETLYNEHK
  inhibition at 5 µM: 4.4%
CK1d, CK1e
  % Inhibition: NB (NB = No Binding (≤ 0))
MST3
  inhibition at 5 µM: 4.2%
